# Measurements as given in PMC10586084 (Journal of Enzyme Inhibition and Medicinal Chemistry, 2023).
# pKi: −log10 of the molar value.
# Experiments:
# Format in all cases: biochemical
# hCA I = hCA I (Homo sapiens, UniProt P00915); experiment: stopped-flow CO2 hydrase assay, hCA I; settings: stopped flow technique, mean from three assays
# hCA II = hCA II (Homo sapiens, UniProt P00918); experiment: stopped-flow CO2 hydrase assay, hCA II; settings: stopped flow technique, mean from three assays
# hCA IV = hCA IV (Homo sapiens, UniProt P22748); experiment: stopped-flow CO2 hydrase assay, hCA IV; settings: stopped flow technique, mean from three assays
# Chain of hCA IV (P22748 19-284 limits assumed): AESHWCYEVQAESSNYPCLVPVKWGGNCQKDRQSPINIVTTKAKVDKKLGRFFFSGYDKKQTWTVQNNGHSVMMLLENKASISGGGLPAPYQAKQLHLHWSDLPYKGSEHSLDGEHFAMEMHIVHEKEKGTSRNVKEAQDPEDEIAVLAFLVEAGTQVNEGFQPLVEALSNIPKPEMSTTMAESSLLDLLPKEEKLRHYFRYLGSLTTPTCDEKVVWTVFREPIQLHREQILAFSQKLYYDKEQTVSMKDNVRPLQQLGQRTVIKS
# hCA IX = hCA IX (Homo sapiens, UniProt Q16790); experiment: biochemical; settings: for pKi: KI hCA IX, stopped flow technique, mean from three assays; for Selectivity index I/IX: ratio KI hCA I / KI hCA IX; for Selectivity index II/IX: ratio KI hCA II / KI hCA IX; for Selectivity index IV/IX: ratio KI hCA IV / KI hCA IX
# hCA XII = hCA XII (Homo sapiens, UniProt O43570); experiment: stopped-flow CO2 hydrase assay, hCA XII; settings: for pKi: KI hCA XII, stopped flow technique, mean from three assays; for Selectivity index I/XII: ratio KI hCA I / KI hCA XII; for Selectivity index II/XII: ratio KI hCA II / KI hCA XII; for Selectivity index IV/XII: ratio KI hCA IV / KI hCA XII
# Chain of hCA XII (O43570 25-354): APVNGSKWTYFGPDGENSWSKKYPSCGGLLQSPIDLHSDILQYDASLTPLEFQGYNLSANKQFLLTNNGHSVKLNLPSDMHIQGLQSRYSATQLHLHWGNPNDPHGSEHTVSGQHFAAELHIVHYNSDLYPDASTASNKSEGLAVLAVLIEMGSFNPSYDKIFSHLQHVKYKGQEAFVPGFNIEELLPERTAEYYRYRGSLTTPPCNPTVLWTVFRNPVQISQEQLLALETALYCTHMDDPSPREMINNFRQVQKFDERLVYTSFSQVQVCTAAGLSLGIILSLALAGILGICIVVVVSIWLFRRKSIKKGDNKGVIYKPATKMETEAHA
# Chain of hCA I (P00915 whole entry): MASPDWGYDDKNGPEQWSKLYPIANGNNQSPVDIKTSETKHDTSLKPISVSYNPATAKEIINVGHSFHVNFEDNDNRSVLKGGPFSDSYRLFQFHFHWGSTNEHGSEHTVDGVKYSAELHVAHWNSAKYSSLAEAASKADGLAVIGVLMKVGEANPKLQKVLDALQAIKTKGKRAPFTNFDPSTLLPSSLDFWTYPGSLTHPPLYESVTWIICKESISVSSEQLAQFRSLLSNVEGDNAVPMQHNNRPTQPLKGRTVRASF
pKi (hCA I),pKi (hCA II),pKi (hCA IV),pKi (hCA IX),Selectivity index I/IX (hCA IX),Selectivity index II/IX (hCA IX),Selectivity index IV/IX (hCA IX),pKi (hCA XII),Selectivity index I/XII (hCA XII),Selectivity index II/XII (hCA XII),Selectivity index IV/XII (hCA XII),SMILES
5.37,7.06,5.49,7.16,61.8,1.2,46.9,7.38,102,2.0,77.4,"NS(=O)(=O)c1ccc(Nc2nc3nccc(-c4ccc([N+](=O)[O-])cc4)n3n2)cc1 [Compound 1q, 4-((7-(4-Nitrophenyl)-[1,2,4]triazolo[1,5-a]pyrimidin-2-yl)amino)benzenesulfonamide]"
5.83,7.19,5.64,7.38,35.5,1.5,55.1,7.21,24.0,1.0,37.4,"Cc1ccc(-c2ccnc3nc(Nc4ccc(S(N)(=O)=O)cc4)nn23)cc1 [Compound 1t, 4-((7-(p-Tolyl)-[1,2,4]triazolo[1,5-a]pyrimidin-2-yl)amino)benzenesulfonamide]"
5.12,6.25,5.05,7.02,79.7,5.8,92.5,7.41,196,14.3,227,"NS(=O)(=O)c1ccc(Nc2nc3nccc(-c4ccc(I)cc4)n3n2)cc1 [Compound 1p, 4-((7-(4-Iodophenyl)-[1,2,4]triazolo[1,5-a]pyrimidin-2-yl)amino)benzenesulfonamide]"
5.79,7.05,5.70,7.29,32.0,1.8,39.4,7.40,40.9,2.2,50.3,"COc1ccc(-c2ccnc3nc(Nc4ccc(S(N)(=O)=O)cc4)nn23)cc1 [Compound 1w, 4-((7-(4-Methoxyphenyl)-[1,2,4]triazolo[1,5-a]pyrimidin-2-yl)amino)benzenesulfonamide]"
5.65,7.20,5.40,7.13,30.4,0.8,53.9,7.53,77.1,2.1,137,"NS(=O)(=O)c1ccc(Nc2nc3nccc(-c4ccc(Cl)cc4)n3n2)cc1 [Compound 1k, 4-((7-(4-Chlorophenyl)-[1,2,4]triazolo[1,5-a]pyrimidin-2-yl)amino)benzenesulfonamide]"
6.12,7.08,6.00,7.54,26.5,2.9,34.5,7.20,12.2,1.3,15.9,"NS(=O)(=O)c1ccc(Nc2nc3nccc(-c4ccc(F)cc4)n3n2)cc1 [Compound 1f, 4-((7-(4-Fluorophenyl)-[1,2,4]triazolo[1,5-a]pyrimidin-2-yl)amino)benzenesulfonamide]"

# The next lines start with the compound.
SMILES,pKi (hCA I),pKi (hCA II),pKi (hCA IV),pKi (hCA IX),Selectivity index I/IX (hCA IX),Selectivity index II/IX (hCA IX),Selectivity index IV/IX (hCA IX),pKi (hCA XII),Selectivity index I/XII (hCA XII),Selectivity index II/XII (hCA XII),Selectivity index IV/XII (hCA XII)
"NS(=O)(=O)c1ccc(Nc2nc3nccc(-c4ccccc4[N+](=O)[O-])n3n2)cc1 [Compound 1s, 4-((7-(2-Nitrophenyl)-[1,2,4]triazolo[1,5-a]pyrimidin-2-yl)amino)benzenesulfonamide]",5.07,7.11,5.40,7.69,414,3.8,195,7.31,173,1.6,81.4
"COc1cc(OC)cc(-c2ccnc3nc(Nc4ccc(S(N)(=O)=O)cc4)nn23)c1 [Compound 1aa, 4-((7-(3,5-Dimethoxyphenyl)-[1,2,4]triazolo[1,5-a]pyrimidin-2-yl)amino)benzenesulfonamide]",5.34,6.96,6.00,7.33,96.7,2.4,21.5,7.57,167,4.1,37.2
"NS(=O)(=O)c1ccc(Nc2nc3nccc(-c4ccccc4F)n3n2)cc1 [Compound 1h, 4-((7-(2-Fluorophenyl)-[1,2,4]triazolo[1,5-a]pyrimidin-2-yl)amino)benzenesulfonamide]",6.17,7.44,6.04,7.71,35.0,1.8,47.2,7.59,26.4,1.4,35.7
"NS(=O)(=O)c1ccc(Nc2nc3nccc(-c4ccccc4)n3n2)cc1 [Compound 1a, 4-((7-Phenyl-[1,2,4]triazolo[1,5-a]pyrimidin-2-yl)amino)benzenesulfonamide]",6.08,7.12,5.88,7.48,25.3,2.3,39.9,7.14,11.7,1.0,18.5
"COc1ccc(-c2ccnc3nc(Nc4ccc(S(N)(=O)=O)cc4)nn23)cc1OC [Compound 1ab, 4-((7-(3,4-Dimethoxyphenyl)-[1,2,4]triazolo[1,5-a]pyrimidin-2-yl)amino)benzenesulfonamide]",6.00,7.02,5.82,7.45,27.7,2.6,42.4,8.05,110,10.6,169
"Cc1cccc(-c2ccnc3nc(Nc4ccc(S(N)(=O)=O)cc4)nn23)c1 [Compound 1u, 4-((7-(m-Tolyl)-[1,2,4]triazolo[1,5-a]pyrimidin-2-yl)amino)benzenesulfonamide]",5.85,7.26,5.31,7.58,53.5,2.1,185,7.15,20.0,0.8,69.0
"CCOc1ccc(-c2ccnc3nc(Nc4ccc(S(N)(=O)=O)cc4)nn23)cc1 [Compound 1z, 4-((7-(4-Ethoxyphenyl)-[1,2,4]triazolo[1,5-a]pyrimidin-2-yl)amino)benzenesulfonamide]",5.65,7.16,5.44,7.36,51.9,1.6,83.9,7.26,40.9,1.2,66.1
